System: mTORC1 signaling pathway
Experiment: Western blot of mTORC1 substrates in crude synaptosomes from rat prefrontal cortex
Assay type: in vivo
Conditions: Example B, 1 hr after administration
Protocol: Study Design. Forty-eight (48) male Sprague Dawley rats weighing between 175 and 200 g were randomized into 8 study groups (n=6/group), following a 5-day acclimation period. On study day 0, rats in Groups 3 and 7 received a single dose of Sal while Groups 4 and 8 received a single dose of Ket (10 mg/kg) each by i.p. injection. The rats in Groups 1 and 5 received a single dose of Veh while Groups 2 and 6 received a single dose of NV-5138 (160 mg/kg) each by oral gavage. One hour after dosing, rats in Groups 1-4 were sacrificed by conscious decapitation and followed by collection of the PFC. Crude synaptosomes were prepared from the PFC and three mTORC1 substrates, pmTOR, pp70S6K and p4E-BP1, and corresponding total protein loading controls (mTOR, p70S6K, and GAPDH) were quantitated by WB. Twenty-four hours after dosing, rats in Groups 5-8 were sacrificed by conscious decapitation and collection of the PFC. Crude synaptosomes were prepared from the PFC and the synaptic proteins (GluR1 and PSD95), as well as the total protein loading control (GAPDH), were quantitated by WB.
Formulation of Ket and NV-5138 for Administration. Ket (Sigma, cat #K1884) was dissolved in Sal at a concentration of 10 mg/mL. A volume of 1 mL/kg was injected i.p. NV-5138 (Navitor, Lot #06) was prepared by dissolving in Veh at a concentration of 50 mg/mL. The dosing volume based on the weight of the animal (3.2 mL/kg) was administered by oral gavage. Test articles were prepared the day of dosing.
Prefrontal Cortex Synaptosome Preparations. The brain was dissected from rats in all groups (n=6/group) and rinsed in PBS. The PFC was collected as shown in FIG. 6 and homogenized at 4° C. in homogenization buffer (0.32 M sucrose, 20 mM HEPES at pH 7.4, 1 mM EDTA, 5 mM NaF, 1 mM NaVO3 and protease inhibitor cocktail (Roche; Ser. No. 19/543,200)). The homogenate was centrifuged for 10 min at 2,800 rpm at 4° C. after which the supernatant was removed and re-centrifuged at 12,000 rpm for 10 min at 4° C. The resulting pellet containing crude synaptosomes was re-suspended in Lysis buffer (50 mM Tris-HCl (pH 7.5), 150 mM NaCl, 1% Triton X-100, 0.1% SDS, 2 mM, EDTA, 1 mM NaVO3, 5 mM NaF and protease inhibitor cocktail) and sonicated on ice for 20 s at 50% amplitude. The protein concentration was determined by Bradford assay and all samples were mixed with loading buffer (60 mM Tris-HCl pH 6.8, 20 mM DTT, 2% SDS, 10% glycerol, 5% β-mercaptoethanol and 0.01% Bromophenol blue) and stored at -20° C. until WB analysis.
Western Blot Analysis: Western blot analysis for GluR1, PSD95 and GAPDH was performed as previously described. Briefly, synaptosomes preparations (15 μg total protein) were loaded into 10-15% SDS PAGE gel for electrophoresis and transferred to a polyvinylidene difluoride (PVDF) membrane in transfer buffer (10× premixed electrophoresis buffer contains 25 mM Tris, 192 mM glycine, pH 8.3; Bio-Rad). […] After final three washes with PBS-T buffer, bands were detected using enhanced chemiluminescence. […]

SMILES	levels of p4E-BP1 in crude PFC synaptosomes (NV-5138 160 mg/kg oral)	levels of pmTOR in crude PFC synaptosomes (NV-5138 160 mg/kg oral)	levels of pp70S6K in crude PFC synaptosomes (NV-5138 160 mg/kg oral)	levels of p4E-BP1 in crude PFC synaptosomes (Ket 10 mg/kg i.p.)	levels of pmTOR in crude PFC synaptosomes (Ket 10 mg/kg i.p.)
CC(C)(C[C@H](N)C(=O)O)C(F)F [NV-5138]	significantly increased	significantly increased	significantly increased		
CNC1(c2ccccc2Cl)CCCCC1=O (centres unmarked) [Ket, ketamine, reference compound]				significantly increased	significantly increased

Source: patent US20210228523A1, “MODULATORS OF SESTRIN-GATOR2 INTERACTION AND USES THEREOF” (Navitor Pharmaceuticals, Inc., priority 2017, published 2021)
